Measured values as given in ChEMBL document CHEMBL2007661, “Compounds: GSK PKIS; Assays: UNC Frye lab” (2012).
Values joined by “and” are separate entries in the source; they are usually repeats but may differ in a detail not shown here. Equal values may be shown once.

Columns and labels:
[1] = biological target: T1, Inhibitor of nuclear factor kappa-B kinase subunit beta (Homo sapiens) (UniProt O14920); settings: at 1 µM
T1 sequence (whole entry): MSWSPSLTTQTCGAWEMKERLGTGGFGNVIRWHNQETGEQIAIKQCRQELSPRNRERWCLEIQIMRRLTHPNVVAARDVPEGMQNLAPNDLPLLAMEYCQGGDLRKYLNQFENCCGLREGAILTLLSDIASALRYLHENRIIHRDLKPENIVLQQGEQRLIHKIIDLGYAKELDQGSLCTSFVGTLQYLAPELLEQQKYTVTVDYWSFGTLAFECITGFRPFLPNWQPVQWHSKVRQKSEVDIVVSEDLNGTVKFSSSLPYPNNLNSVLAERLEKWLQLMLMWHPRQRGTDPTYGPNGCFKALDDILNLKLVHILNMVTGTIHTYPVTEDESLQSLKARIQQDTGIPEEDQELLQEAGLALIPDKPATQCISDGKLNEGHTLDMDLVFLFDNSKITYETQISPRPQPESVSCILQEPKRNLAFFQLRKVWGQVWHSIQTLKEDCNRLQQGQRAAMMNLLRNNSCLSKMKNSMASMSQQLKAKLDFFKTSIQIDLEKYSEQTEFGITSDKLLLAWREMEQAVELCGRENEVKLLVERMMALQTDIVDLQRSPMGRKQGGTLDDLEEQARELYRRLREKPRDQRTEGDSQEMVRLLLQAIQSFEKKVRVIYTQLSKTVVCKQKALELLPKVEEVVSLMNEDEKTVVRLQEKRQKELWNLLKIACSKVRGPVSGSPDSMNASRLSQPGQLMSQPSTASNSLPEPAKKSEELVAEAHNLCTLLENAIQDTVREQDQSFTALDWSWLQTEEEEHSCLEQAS

[2] = biological target: T2, Inhibitor of nuclear factor kappa-B kinase subunit epsilon (Homo sapiens) (UniProt Q14164); settings: at 1 µM
T2 sequence (whole entry): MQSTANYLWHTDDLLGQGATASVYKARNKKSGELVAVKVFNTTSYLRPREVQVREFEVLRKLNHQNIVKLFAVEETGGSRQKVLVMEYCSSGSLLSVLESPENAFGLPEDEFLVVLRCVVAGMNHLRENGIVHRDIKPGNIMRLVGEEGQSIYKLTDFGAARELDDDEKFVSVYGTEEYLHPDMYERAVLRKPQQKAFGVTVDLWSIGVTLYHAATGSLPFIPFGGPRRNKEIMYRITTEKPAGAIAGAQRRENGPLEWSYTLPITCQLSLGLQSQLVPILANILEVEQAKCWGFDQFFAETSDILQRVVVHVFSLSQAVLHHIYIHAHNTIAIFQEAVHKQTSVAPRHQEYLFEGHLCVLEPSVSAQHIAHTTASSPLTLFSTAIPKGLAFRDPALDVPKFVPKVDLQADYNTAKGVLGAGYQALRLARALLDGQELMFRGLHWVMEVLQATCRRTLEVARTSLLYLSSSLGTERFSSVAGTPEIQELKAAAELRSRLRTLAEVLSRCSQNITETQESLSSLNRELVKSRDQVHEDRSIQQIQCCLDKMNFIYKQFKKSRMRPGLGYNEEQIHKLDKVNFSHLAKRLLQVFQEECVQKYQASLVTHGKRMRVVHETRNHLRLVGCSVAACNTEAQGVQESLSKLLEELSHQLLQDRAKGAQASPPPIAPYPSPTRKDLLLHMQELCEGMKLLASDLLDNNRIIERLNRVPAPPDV

inhibition [1] | inhibition [2] | SMILES
0% and -2% | 0% | COc1cccc(-n2ncc3c(N/N=C/c4ccc(C)cc4)ncnc32)c1
-2% and -3% | 3% and 0% | CC1=C(C(=O)Nc2ccc3[nH]ncc3c2)C(c2ccc(F)cc2)N=C(c2ccc(C(F)(F)F)nc2)N1 (stereo unspecified)
-1% | 3% and 0% | COc1cccc(-n2ncc3c(N/N=C/c4ccc(S(C)(=O)=O)cc4)ncnc32)c1
